Key:
[1] = tested on: PMN differentiated from HPCs; test: PMN generated from HPC in the presence of GM-CSF and arachidonic acid; assay type: cell-based, mouse
Procedure: Single cells suspensions from spleen and tumors were prepared as described above. Then cells were stained and sorted on BD FACS Aria BD (Biosciences). PMN-MDSC)(CD45^+ CD11b^+Ly6G^+Ly6C^lo and M-MDSC (CD45^+ CD11b^+Ly6G^−Ly6C^hi) were plated in U-bottom 96-well plates (3 replicates) in RPMI with 10% FBS and co-cultured at different ratios with splenocytes from Pmel or OT-1 transgenic mice in the presence of cognate peptides: OT-1 (SIINFEKL; 0.1 ng/ml), Pmel (EGSRNQDWL; 0.1 μg/ml). After 48 h, cells were incubated with [^3H]-thymidine (PerkinElmer) for 16-18 h. Proliferation was measured by using TopCount NXT instrument (PerkinElmer).
RNA was extracted using Total RNA Kit according to manufacturer's instructions. DNase digestion was performed cDNA was generated with High-Capacity cDNA Reverse Transcription Kit (Applied Biosystems, Foster City, Calif., USA). qRT-PCR was performed using Power SYBR Green PCR Master Mix (Applied Biosystems) in 96- or 384 well plates. Plates were read with ABI 7900 (Applied Biosystems).
Mouse neutrophils were generated from enriched bone marrow hematopoietic progenitor cells (HPCs) with 20 ng/ml of GM-CSF. Briefly, HPCs were isolated from mouse BM by using Lineage depletion kit (Miltenyi), according to manufacturer's instructions. Cells were seeded at 25000 cell/ml in 24 well plates and GM-CSF (20 ng/ml), 20% v/v TES or arachidonic acid (10 μM) were added at day 0 and day 3. At day 5, Ly6G positive neutrophils were isolated by using anti-Ly6G biotin (Miltenyi) and streptavidin beads (Miltenyi), according to manufacturer's instructions.
HPCs were isolated from mouse BM by using Lineage depletion kit (Miltenyi), according to manufacturer's instructions. HPC were resuspended in serum-free medium (SFM) containing lentiviral vectors followed by centrifugation of the plate at 1000 rpm for 20 min at 25° C. Fresh media supplemented with GM-CSF (20 ng/ml) was then added and cells were seeded at 25000 cell/ml in 24 well plates. At day 3, GM-CSF and 20% v/v TES were added to the culture. At day 5, cells were collected, stained with PE conjugated anti mouse Ly6G, APC conjugated anti mouse Ly6C and BV421 conjugated anti-mouse CD11b, and GFP^− and GFP^+Ly6G^+ cells were sorted on BD FACS Melody (BD Biosciences). GFP^− and GFP^+Ly6G^+ cells were seeded at 2.000.000 cells/ml in presence of GM-CSF and TES and incubated for further 24 hours. Pellets and supernatants were collected for further analysis. PGE2 concentration in supernatants was measured by using PGE2 ELISA KIT (Invitrogen), according to manufacturer's instructions.

[2] = tested on: pSTAT5 / FATP2 in human PMNs; test: Human PMN from healthy donors treated with GM-CSF (pSTAT5, FATP2); assay type: cell-based; conditions: human PMNs from blood of healthy donors
Text: FIG. 12A, Lipid accumulation (measured by BODIPY staining) in M-MDSCs isolated from the blood of patients with cancer or healthy individuals. Each circle indicates an individual. FIG. 12B, Amount of lipids (BODIPY staining) in M-MDSCs from blood and tumor tissue of patients with cancer. Each circle indicates an individual (n=5). FIG. 12C, RNA-seq analysis of genes involved in lipid accumulation in human LOX1^+ PMN-MDSCs and LOX1^− PMNs (n=4). FIG. 12D, PTGES expression in LOX1^+ and LOX1^− PMNs from blood of patients with cancer. Fold change compared with LOX1^− PMNs (n=3). FIG. 12E, SLC27A2 expression in M-MDSCs and monocytes isolated from blood of patients with cancer and healthy donors, respectively. Each circle indicates an individual (n=4-6). Data are mean±s.d. FIG. 12F, pSTAT5 by flow cytometry at different time points, in human PMNs isolated from the blood of healthy donors and treated with different amounts of GM-CSF. FIG. 12G, FATP2 in PMNs isolated from blood of healthy donors and treated with GM-CSF. Representative of three independent experiments. FIG. 12H, Content of total phosphatidylethanolamine (PE) and arachidonoyl-containing phosphatidylethanolamine (AA-PE) in PMN-MDSCs isolated from patients with lung cancer (n=5) or healthy donors (n=4). Each circle indicates an individual. Data are mean±s.d. *P<0.05, **P<0.01, ***P<0.001, ****P<0.0001, unpaired two-sided Student's t-test. […]

[3] = tested on: STAT5 / FATP2 in PMN; test: Mouse bone marrow PMN treated with GM-CSF (pSTAT5 flow cytometry, FATP2 Western blot); assay type: cell-based
Procedure: Cells were lysed in RIPA buffer (Sigma-Aldrich) in presence of protease inhibitor cocktail (Sigma-Aldrich), sonicated and stored at −80° C. Whole cell lysates were prepared and subjected to 10% SDS-PAGE and transferred to PVDF membrane. The membranes were probed overnight at 4° C. with the antibodies specific for FATP2 (SLC27A2) (ThermoFisher), ACTIN, GAPDH, STAT5 (Cell Signaling Technology). Membranes were washed and incubated for 1 h at room temperature with secondary antibody conjugated with peroxidase.
Slc27a2 promoter has a binding site for the transcription factor STAT5 (http://jaspar.genereg.net). STAT5 can be activated by GM-CSF, which plays a critical role in myelopoiesis and expansion of MDSC^23. To explore whether GM-CSF might control slc27a2 expression through STAT5 activation we treated PMN isolated from BM of tumor free mice with GM-CSF for 2 hrs. […] To confirm the role of STAT5 in controlling the expression of slc27a2 in PMN, we crossed Stat5″ mice with S100A8-cre mice to target the deletion of Stat5 to PMN. In the absence of Stat5 in PMN, the tumor growth was slower than in control mice (FIG. 11I). This was associated with lower expression of slc27a2 in PMN (FIG. 11J).

[4] = PMN differentiated from HPC in the presence of AA

Compound	expansion of PMN-MDSC ([1]; HPC with GM-CSF and AA (10 μM))	suppression of antigen specific T cell responses by the generated PMN ([1]; HPC with GM-CSF and AA (10 μM))	expression of nox2 [1, 4]	production of PGE2 [1, 4]	FATP2 [2]	pSTAT5 [2]	FATP2 protein ([3]; PMN from BM of tumor free mice, GM-CSF)	activation of STAT5 (pSTAT5) ([3]; PMN from BM of tumor free mice, GM-CSF for 2 hrs)	expression of FATP2 in Stat5 deficient PMN ([3]; Stat5 deficient PMN, GM-CSF)
CCCCC/C=C\C/C=C\C/C=C\C/C=C\CCCC(=O)O [AA, arachidonic acid]	favored the expansion of PMN-MDSC	suppressed antigen specific T cell responses	increased expression of nox2	higher production of PGE2	–	–	–	–	–
GM-CSF: cytokine that activates STAT5; plays a critical role in myelopoiesis and expansion of MDSC	–	–	–	–	up-regulated	up-regulated	up-regulation of FATP2	dose-dependent activation of STAT5	failed to increase the expression of FATP2

Source: patent US20220096484A1, “METHODS AND COMPOSITIONS FOR TREATING CANCER BY TARGETING FATP2 AND MYELOID DERIVED SUPPRESSOR CELLS” (The Wistar Institute of Anatomy and Biology, priority 2019, published 2022)
